Entries after “also recorded” stand apart in the source; their conditions may differ. Where no end group is shown, it is not given here.
Key:
[1] = target: T1, QhTERT cells that express FGFR2c (Homo sapiens, UniProt P21802); test: Competition for reagent binding with unlabeled peptide (confocal microscopy); conditions: unlabeled peptide 50 μM and greater (up to 500 μM) vs 0 μM; 5 μM SRR*-Cy5.5; 4° C
T1 construct: expressed in transfected cells; host or cells: QhTERT (human non-dysplastic Barrett's esophagus cells immortalized with hTert)
Method: We administered unlabeled SRR*, and used confocal microscopy to observe competition for binding of SRR*-Cy5.5 to QhTERT cells that express FGFR2c, FIG. 3A-L. Approximately 10^3 cells were grown to ˜70% confluence on cover glass in triplicate. Unlabeled peptides at concentrations of 0, 50, 100, 150, 250, and 500 μM were incubated with the cells for 30 min at 4° C. The cells were washed and incubated with 5 μM of the target peptide for another 30 min at 4° C. The cells were washed and fixed with 4% PFA for 5 min. The cells were washed with PBS and mounted with ProLong Gold reagent containing DAPI (Invitrogen).

[2] = target: T1, QhTERT cells that express FGFR2c; test: Apparent association time constant by flow cytometry; format: binding; conditions: for apparent association time constant k: 5 μM, RT, 0 to 30 min; for time scale for onset of binding: from k
Method: We measured the apparent association time constant of the peptide reagent to QhTERT/FGFR2c cells to assess binding onset.^46 Cells were grown to ˜80% confluence in 10 cm dishes, and detached with PBS-based cell dissociation buffer (Invitrogen). Cells (˜10^5) were incubated with 5 μM SRR-Cy5.5 at RT for various time intervals ranging from 0 to 30 min. The cells were centrifuged, and washed with cold PBS. Flow cytometry analysis was performed as described above, and the median fluorescence intensity (y) were measured on flow cytometry at different time points (t) using Flowjo software. The rate constant k was calculated by fitting the data to a first order kinetics model, y(t)=Imax[1−exp^(−kt)], where Imax=maximum value using Prism 5.0 software (GraphPad Inc).

[3] = tested on: phosphorylation of FGFR2 (p-FGFR), AKT (p-AKT) and ERK (p-ERK) in QhTERT cells that express FGFR2b; test: Effect on cell signaling, Western blot, FGFR2b cells; format: cell-based, human; conditions: peptide 5 or 100 μM, FGF1 100 ng/mL, 20 min, vs untreated cells
Method: (§1) QhTERT cells that overexpress either FGFR2b or FGFR2c were seeded in 12-well flat-bottom plates with 500 μL of serum-free medium for 16 hours. FGF1 (#2232-FA-025, R&D systems) was reconstituted to a concentration of 100 μg/mL using PBS, diluted with 0.1% bovine serum albumin, and added to the cells at final concentrations of 100 ng/mL for 20 min in separate wells. Heparin (#H3149-10KU, Sigma) with final concentration of 100 unit/mL was also added to increase stability. In addition, peptides at concentrations of 5 and 100 μM were incubated for 20 min in separate wells. The cells were washed with PBS and lysed in RIPA buffer containing protease inhibitors (#11836170001, Roche, Basel, Switzerland). Lysates were separated by gel electrophoresis, transferred to polyvinylidene difluoride membranes (#ISEQ00010, Millipore), and detected by immunoblotting using an enhanced chemiluminescence system (#RPN2106, GE Healthcare). Anti-FGFR2 antibody (#SC 122, Santa Cruz Biotechnology), anti-phospho-FGFR (#3471, Cell Signaling Technology), anti-AKT (#4691P, Cell Signaling Technology), anti-ERK1/2 (#4695P, Cell Signaling Technology), anti-phospho-AKT (pS473; #4060P, Cell Signaling Technology), anti-phospho-ERK1/2 (#4370P, Cell Signaling Technology), and anti-tubulin (#32-2600, Invitrogen) were used as per manufacturer's instructions.

[4] = tested on: phosphorylation of FGFR2 (p-FGFR), AKT (p-AKT) and ERK (p-ERK) in QhTERT cells that express FGFR2c; test: Effect on cell signaling, Western blot, FGFR2c cells; format: cell-based, human; conditions: peptide 5 or 100 μM, FGF1 100 ng/mL, 20 min, vs untreated cells
Method: as §1

[5] = target: T2, QhTERT cells that express FGFR2b (Homo sapiens, UniProt P21802); test: Confocal fluorescence microscopy, binding to QhTERT cells expressing FGFR2b
T2 construct: expressed in transfected cells; host or cells: QhTERT (human non-dysplastic Barrett's esophagus cells immortalized with hTert)
Text: (§2) All human esophagus specimens were obtained with written, informed patient consent per approval and guidelines of the University of Michigan Institutional Review Board (IRB). Human non-dysplastic Barrett's esophagus (BE) cells immortalized with hTert (QhTERT) were obtained from the American Type Culture Collection (ATCC) and cultured in keratinocyte-serum free medium containing bovine pituitary extract and human recombinant EGF (ThermoFisher #17005042). QhTERT cells with stable expression of FGFR2b or FGFR2c were provided by DGB. We cultured these cells with keratinocyte-serum free medium containing bovine pituitary extract and human recombinant EGF (ThermoFisher #17005042) and added 1 μg/mL of puromycin-dihydrochloride (Invitrogen #A11138-03). All cells were cultured at 37° C. in 5% CO2, and were passaged using 0.25% EDTA containing trypsin (Mediatech Inc). A hemocytometer was used to count the cell number. Peptide synthesis reagents were obtained from either Anaspec or AAPPTEC with the highest grade available (>99% purity) and used without further purification. Solvents and other chemical reagents were obtained from Sigma-Aldrich, unless otherwise stated.
(§3) On confocal microscopy, we validated specific peptide reagent binding to human BE cells that express FGFR2.

[6] = target: T1, QhTERT cells that express FGFR2c; test: Confocal fluorescence microscopy, binding to QhTERT cells expressing FGFR2c
Text: as §2, §3

QhTERT cells wild type = test: Confocal fluorescence microscopy, binding to wild-type QhTERT cells; set-up: species or system human
Text: as §2, §3

[7] = target: T1, QhTERT cells that express FGFR2c; test: Apparent dissociation constant by flow cytometry; format: binding; conditions: 0 to 200 nM, 4° C, 1 hour
Method: We measured the apparent dissociation constant kd for peptide reagent binding to cells to assess binding affinity.^45 The Cy5.5-labeled peptide reagent was serially diluted in PBS at concentrations ranging from 0 to 200 nM in 25 nM increments. QhTERT/FGFR2c cells (˜10^5) were incubated with peptide at 4° C. for 1 hour, washed with cold PBS, and the mean fluorescence intensities were measured using flow cytometry. The equilibrium dissociation constant kd=1/ka was calculated by performing a least squares fit of the data to the non-linear equation I=(I0+Imaxka[X])/([…]). I0 and Imax are the initial and maximum fluorescence intensities, corresponding to no peptide and at saturation, respectively, and [X] represents the concentration of the bound peptide reagent. Prism 5.0 software (GraphPad Inc) was used to calculate kd.

[8] = tested on: human esophageal specimens (SQ, BE, HGD, EAC); test: Confocal microscopy staining of sections of human esophagus ex vivo; format: binding
Method: Formalin-fixed sections of human esophageal specimens were deparaffinized, and antigen retrieval was performed using standard methods. Briefly, the sections were incubated in xylene for 3 min 3×, washed with 100% ethanol for 2 min 2×, and washed with 95% ethanol for 2 min 2×. Rehydration was performed by washing in dH2O for 5 min 2×. Antigen unmasking was performed by boiling the slides in 10 mM sodium citrate buffer with 0.05% Tween at pH 6.0, and then maintaining at sub-boiling temperature for 15 min. The slides were cooled for 30 min, and the sections were washed in dH2O for 3 min 3× and in PBS for 5 min. Blocking was performed with DAKO protein blocking agent (X0909, DAKO) for 1 hour at RT. The peptides were incubated at a concentration of 1 μM for 10 min at RT. The sections were washed in PBS for 3 min 3×, and incubated with 1:1000 dilution of monoclonal anti-FGFR2 (Abcam, ab58201) overnight at 4° C.
The sections were then washed in PBS for 5 min 3×. A 1:500 dilution of AF488-labeled secondary antibody (goat anti-mouse) was added to each section and incubated for 30 min at RT. The secondary antibody solution was removed by washing with PBS for 5 min 3×. The sections were then mounted with ProLong Gold reagent containing DAPI (Invitrogen). The mean fluorescence intensities from 3 boxes (dimensions of […]) located completely within the surface epithelium of each specimen were measured. […] Serial sections were processed for routine histology (H&E), and were reviewed by an expert gastrointestinal pathologist (HDA).

[9] = tested on: sections of human esophageal squamous cell cancer (SCC); test: Confocal microscopy staining of human esophageal squamous cell carcinoma sections ex vivo; format: binding
Text: We observed good co-localization of peptide reagent and antibody binding on merged images, FIG. 10C. Representative histology (H&E) for SCC is shown, FIG. 10D.

[10] = tested on: sections of human gastric cancer; test: Confocal microscopy staining of human gastric cancer sections ex vivo; format: binding
Text: We observed good co-localization of peptide and antibody binding on merged images, FIG. 11C. Representative histology (H&E) for gastric cancer is shown, FIG. S6D.

T1 sequence (P21802 22-821): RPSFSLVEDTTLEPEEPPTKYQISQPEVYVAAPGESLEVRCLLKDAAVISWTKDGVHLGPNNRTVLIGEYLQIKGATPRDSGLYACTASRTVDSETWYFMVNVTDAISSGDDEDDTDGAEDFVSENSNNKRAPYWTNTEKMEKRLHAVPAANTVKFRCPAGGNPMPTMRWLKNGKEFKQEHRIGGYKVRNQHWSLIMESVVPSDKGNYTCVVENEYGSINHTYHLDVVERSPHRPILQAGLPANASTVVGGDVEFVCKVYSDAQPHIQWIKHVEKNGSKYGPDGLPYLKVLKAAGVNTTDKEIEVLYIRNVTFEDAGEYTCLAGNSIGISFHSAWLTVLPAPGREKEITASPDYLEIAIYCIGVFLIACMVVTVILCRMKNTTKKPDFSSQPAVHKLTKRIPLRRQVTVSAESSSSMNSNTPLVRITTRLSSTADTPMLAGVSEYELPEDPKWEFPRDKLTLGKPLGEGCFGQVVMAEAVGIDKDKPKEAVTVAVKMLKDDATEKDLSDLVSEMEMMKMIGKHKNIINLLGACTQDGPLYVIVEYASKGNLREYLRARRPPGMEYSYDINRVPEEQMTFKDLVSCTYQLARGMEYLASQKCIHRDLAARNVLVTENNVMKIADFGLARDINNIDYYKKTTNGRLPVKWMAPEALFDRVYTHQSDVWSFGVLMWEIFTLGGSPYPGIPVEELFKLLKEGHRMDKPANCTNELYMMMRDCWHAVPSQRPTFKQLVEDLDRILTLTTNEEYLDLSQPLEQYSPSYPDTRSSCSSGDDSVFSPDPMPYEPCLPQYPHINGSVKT
T2 sequence (P21802 22-822 isoform P21802-3 limits assumed): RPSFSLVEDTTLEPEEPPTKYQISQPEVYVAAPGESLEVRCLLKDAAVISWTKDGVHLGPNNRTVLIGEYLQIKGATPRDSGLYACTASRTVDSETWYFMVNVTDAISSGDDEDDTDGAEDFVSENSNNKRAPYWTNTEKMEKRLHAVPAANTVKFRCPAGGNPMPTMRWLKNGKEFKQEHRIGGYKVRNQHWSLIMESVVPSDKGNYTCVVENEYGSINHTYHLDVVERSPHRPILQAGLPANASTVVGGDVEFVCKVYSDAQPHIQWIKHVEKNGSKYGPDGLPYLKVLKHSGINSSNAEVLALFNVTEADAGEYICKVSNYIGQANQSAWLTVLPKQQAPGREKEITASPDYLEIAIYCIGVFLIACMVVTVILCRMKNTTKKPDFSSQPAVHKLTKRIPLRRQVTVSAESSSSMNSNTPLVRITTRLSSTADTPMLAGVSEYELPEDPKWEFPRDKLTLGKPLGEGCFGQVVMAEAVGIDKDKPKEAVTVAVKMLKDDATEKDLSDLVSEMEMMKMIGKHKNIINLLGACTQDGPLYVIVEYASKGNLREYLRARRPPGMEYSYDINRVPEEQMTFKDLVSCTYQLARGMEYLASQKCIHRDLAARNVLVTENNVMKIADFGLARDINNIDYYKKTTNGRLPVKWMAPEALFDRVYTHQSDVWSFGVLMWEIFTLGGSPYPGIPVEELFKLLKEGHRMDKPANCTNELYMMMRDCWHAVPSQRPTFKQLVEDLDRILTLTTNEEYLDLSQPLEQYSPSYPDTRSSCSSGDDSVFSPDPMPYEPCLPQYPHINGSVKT

Molecule | change in binding (mean fluorescence intensity) of SRR*-Cy5.5 on addition of unlabeled peptide [1] | apparent association time constant k [2] [min⁻¹] | time scale for onset of binding [2] [min] | phosphorylation of FGFR2 (p-FGFR), AKT (p-AKT) and ERK (p-ERK) [3] | phosphorylation of FGFR2 (p-FGFR), AKT (p-AKT) and ERK (p-ERK) [4] | binding signal on cell surface (confocal microscopy) [5] | binding signal on cell surface (confocal microscopy) [6] | binding signal on cell surface (confocal microscopy) (QhTERT cells wild type) | also measured
C[C@H](NC(=O)[C@@H](NC(=O)[C@H](CCCNC(=N)N)NC(=O)[C@H](Cc1ccccc1)NC(=O)[C@H](CO)NC(=O)[C@H](C)NC(=O)[C@@H]1CCCN1C(=O)[C@H](CCCNC(=N)N)NC(=O)[C@H](CCCNC(=N)N)NC(=O)[C@@H](N)CO)[C@@H](C)O)C(=O)N[C@@H](CCCNC(=N)N)C(=O)N[C@@H](CCC(=O)O)C(N)=O (relative stereo) [SRR*, SRRPASFRTARE] | significant reduction; also recorded: significant decrease | 0.16 | 6.2 | no obvious change | no obvious change |  |  |  | 
FGF1: FGF1 (#2232-FA-025, R&D systems), positive control that binds FGFR2b and FGFR2c [reference compound] |  |  |  | to some extent; also recorded: shows phosphorylation activity | strong phosphorylation activity; also recorded: shows phosphorylation activity |  |  |  | 
SPS*-Cy5.5: scrambled sequence SPSRERTFRARA for control, labeled with Cy5.5 via a GGGSK linker (SPSRERTFRARAGGGS-{K(Cy5.5)-NH2}) [reference compound] |  |  |  |  |  | Minimal binding; also recorded: Minimal signal | Minimal binding; also recorded: Minimal signal | Minimal binding; also recorded: Minimal signal | 
SPSRERTFRARA [SPS*, unlabeled scrambled peptide used for control, reference compound] | No significant difference; also recorded: Non-significant differences |  |  |  |  |  |  |  | 
SRR*-Cy5.5: 12 amino acid sequence SRRPASFRTARE with fluorophore Cy5.5 attached via a GGGSK linker on the C-terminus (not fully specified (C-terminus)) |  | 0.16 | ~6.2 |  |  | strong signal; also recorded: strong binding | strong signal; also recorded: strong binding | minimal signal | mean fluorescence intensity versus control SPS*-Cy5.5 ([5]; compared with wild-type): significantly greater; mean fluorescence intensity versus control SPS*-Cy5.5 ([6]; compared with wild-type): significantly greater; Kd [7]: 0.068 µM; mean target-to-background (T/B) ratio for HGD and EAC versus BE and SQ ([8]; 3 boxes of 30×30 μm^2): significantly higher; staining (fluorescence intensity) of section ([8]; Barrett's esophagus (BE)): minimal fluorescence intensity; also recorded: minimal staining; staining (fluorescence intensity) of section ([8]; esophageal adenocarcinoma (EAC)): strong signal; also recorded: strong binding; staining (fluorescence intensity) of section ([8]; high-grade dysplasia (HGD)): strong signal; also recorded: strong binding; mean fluorescence intensity from HGD and EAC compared with BE ([8]; n=28, 33, 22, 17 specimens of SQ, BE, HGD, EAC): significantly greater; staining (fluorescence intensity) of section ([8]; squamous (SQ)): minimal fluorescence intensity; also recorded: minimal staining; staining (fluorescence intensity) of section ([9]; human esophageal SCC): strong fluorescence intensity; also recorded: strong binding; staining (fluorescence intensity) of section ([9]; normal human esophagus): minimal fluorescence intensity; also recorded: minimal staining; mean fluorescence intensity from SCC versus normal ([9]; paired, two-sided t-test): significantly greater; staining (fluorescence intensity) of section ([10]; human gastric cancer): strong fluorescence intensity; also recorded: strong binding; staining (fluorescence intensity) of section ([10]; normal human stomach): minimal fluorescence intensity; also recorded: minimal staining; mean fluorescence intensity from gastric cancer versus normal ([10]; paired, two-sided t-test): significantly greater
